The supplement of paper PMC10307832

Assays:
Test in all cases: relative viability (nuclei count vs DMSO), 5 days (fraction); higher = more cells survive
[1] = system: LK-2
Summary of the method: (§1)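 Lung cancer cell lines in 1536-well plates got either a single drug or a fixed anchor-drug dose together with five library-drug doses (not always all listed) in √10 steps, by pin tool, on the day after seeding. Nuclei were counted after 5 days, and relative viability is the treated-to-vehicle ratio of nuclei counts. Values are medians of duplicate plates.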

[2] = system: NCI-H2085
Summary of the method: as §1

[3] = system: NCI-H2405
Summary of the method: as §1

[4] = system: UMC-11
Summary of the method: as §1

[5] = system: H3255
Summary of the method: as §1

[6] = system: LCLC-103H
Summary of the method: as §1

[7] = system: NCI-H322M
Summary of the method: as §1

[8] = system: LU99A
Summary of the method: as §1

[9] = system: NCI-H2228
Summary of the method: as §1

[10] = system: NCI-H1437
Summary of the method: as §1

[11] = system: NCI-H1651
Summary of the method: as §1

[12] = system: RERF-LC-KJ
Summary of the method: as §1

[13] = system: NCI-H1792
Summary of the method: as §1

[14] = system: NCI-H23
Summary of the method: as §1

[15] = system: HARA
Summary of the method: as §1

[16] = system: LXF-289
Summary of the method: as §1

[17] = system: 201T
Summary of the method: as §1

[18] = system: HCC-827
Summary of the method: as §1

[19] = system: COR-L 105
Summary of the method: as §1

[20] = system: LC-2-ad
Summary of the method: as §1

[21] = system: CAL-12T
Summary of the method: as §1

[22] = system: HCC-15
Summary of the method: as §1

[23] = system: BEN
Summary of the method: as §1

SMILES: O=C(O)CCCCC(CCSCc1ccccc1)SCc1ccccc1 (stereo not given) [CPI-613] + C[C@]1(O)C[C@@H](c2nc(-c3ccc4ccc(-c5ccccc5)nc4c3)c3c(N)nccn32)C1 [Linsitinib] (partner 1 µM)
- relative viability ([1]; first compound 5 µM): 0.526
- relative viability ([1]; first compound 15.81 µM): 0.637
- relative viability ([1]; first compound 50 µM): 0.655
- relative viability ([1]; first compound 158.11 µM): 0.853
- relative viability ([1]; first compound 500 µM): 0.54
- relative viability ([2]; first compound 5 µM): 0.854
- relative viability ([2]; first compound 15.81 µM): 0.759
- relative viability ([2]; first compound 50 µM): 0.95
- relative viability ([2]; first compound 158.11 µM): 0.548
- relative viability ([2]; first compound 500 µM): 0.2
- relative viability ([3]; first compound 5 µM): 0.979
- relative viability ([3]; first compound 15.81 µM): 0.897
- relative viability ([3]; first compound 50 µM): 0.895
- relative viability ([3]; first compound 158.11 µM): 0.818
- relative viability ([3]; first compound 500 µM): 0.773
- relative viability ([4]; first compound 5 µM): 0.881
- relative viability ([4]; first compound 15.81 µM): 1
- relative viability ([4]; first compound 50 µM): 0.992
- relative viability ([4]; first compound 158.11 µM): 0.282
- relative viability ([4]; first compound 500 µM): 0.0946
- relative viability ([5]; first compound 5 µM): 0.915
- relative viability ([5]; first compound 15.81 µM): 0.989
- relative viability ([5]; first compound 50 µM): 0.969
- relative viability ([5]; first compound 158.11 µM): 0.948
- relative viability ([5]; first compound 500 µM): 0.921
- relative viability ([6]; first compound 5 µM): 1.11
- relative viability ([6]; first compound 15.81 µM): 1.01
- relative viability ([6]; first compound 50 µM): 1.08
- relative viability ([6]; first compound 158.11 µM): 1
- relative viability ([6]; first compound 500 µM): 0.866
- relative viability ([7]; first compound 5 µM): 0.832
- relative viability ([7]; first compound 15.81 µM): 0.721
- relative viability ([7]; first compound 50 µM): 0.931
- relative viability ([7]; first compound 158.11 µM): 0.693
- relative viability ([7]; first compound 500 µM): 0.634
- relative viability ([8]; first compound 5 µM): 0.519
- relative viability ([8]; first compound 15.81 µM): 0.461
- relative viability ([8]; first compound 50 µM): 0.561
- relative viability ([8]; first compound 158.11 µM): 0.273
- relative viability ([8]; first compound 500 µM): 0.0476
- relative viability ([9]; first compound 5 µM): 0.735
- relative viability ([9]; first compound 15.81 µM): 0.453
- relative viability ([9]; first compound 50 µM): 0.402
- relative viability ([9]; first compound 158.11 µM): 0.221
- relative viability ([9]; first compound 500 µM): 0.0094
- relative viability ([10]; first compound 5 µM): 1.03
- relative viability ([10]; first compound 15.81 µM): 0.902
- relative viability ([10]; first compound 50 µM): 0.916
- relative viability ([10]; first compound 158.11 µM): 0.137
- relative viability ([10]; first compound 500 µM): 0.0235
- relative viability ([11]; first compound 5 µM): 0.968
- relative viability ([11]; first compound 15.81 µM): 0.92
- relative viability ([11]; first compound 50 µM): 0.836
- relative viability ([11]; first compound 158.11 µM): 0.316
- relative viability ([11]; first compound 500 µM): 0.133
- relative viability ([12]; first compound 5 µM): 0.878
- relative viability ([12]; first compound 15.81 µM): 0.869
- relative viability ([12]; first compound 50 µM): 0.887
- relative viability ([12]; first compound 158.11 µM): 0.87
- relative viability ([12]; first compound 500 µM): 0.885
- relative viability ([13]; first compound 5 µM): 0.514
- relative viability ([13]; first compound 15.81 µM): 0.49
- relative viability ([13]; first compound 50 µM): 0.56
- relative viability ([13]; first compound 158.11 µM): 0.411
- relative viability ([13]; first compound 500 µM): 0.512
- relative viability ([14]; first compound 5 µM): 0.596
- relative viability ([14]; first compound 15.81 µM): 0.567
- relative viability ([14]; first compound 50 µM): 0.395
- relative viability ([14]; first compound 158.11 µM): 0.383
- relative viability ([14]; first compound 500 µM): 0.0224
- relative viability ([15]; first compound 5 µM): 0.906
- relative viability ([15]; first compound 15.81 µM): 0.864
- relative viability ([15]; first compound 50 µM): 0.991
- relative viability ([15]; first compound 158.11 µM): 0.44
- relative viability ([15]; first compound 500 µM): 0.0277
- relative viability ([16]; first compound 5 µM): 0.997
- relative viability ([16]; first compound 15.81 µM): 0.969
- relative viability ([16]; first compound 50 µM): 0.921
- relative viability ([16]; first compound 158.11 µM): 0.269
- relative viability ([16]; first compound 500 µM): 0.0192
- relative viability ([17]; first compound 5 µM): 0.98
- relative viability ([17]; first compound 15.81 µM): 0.969
- relative viability ([17]; first compound 50 µM): 1.01
- relative viability ([17]; first compound 158.11 µM): 0.864
- relative viability ([17]; first compound 500 µM): 0.8
- relative viability ([18]; first compound 5 µM): 0.967
- relative viability ([18]; first compound 15.81 µM): 0.892
- relative viability ([18]; first compound 50 µM): 0.906
- relative viability ([18]; first compound 158.11 µM): 0.613
- relative viability ([18]; first compound 500 µM): 0.0916
- relative viability ([19]; first compound 5 µM): 1.15
- relative viability ([19]; first compound 15.81 µM): 0.77
- relative viability ([19]; first compound 50 µM): 0.902
- relative viability ([19]; first compound 158.11 µM): 0.664
- relative viability ([19]; first compound 500 µM): 0.181
- relative viability ([20]; first compound 5 µM): 0.805
- relative viability ([20]; first compound 15.81 µM): 0.847
- relative viability ([20]; first compound 50 µM): 0.738
- relative viability ([20]; first compound 158.11 µM): 0.251
- relative viability ([20]; first compound 500 µM): 0.0081
- relative viability ([21]; first compound 5 µM): 0.865
- relative viability ([21]; first compound 15.81 µM): 0.634
- relative viability ([21]; first compound 50 µM): 0.561
- relative viability ([21]; first compound 158.11 µM): 0.642
- relative viability ([21]; first compound 500 µM): 0.62
- relative viability ([22]; first compound 5 µM): 0.878
- relative viability ([22]; first compound 15.81 µM): 0.845
- relative viability ([22]; first compound 50 µM): 0.794
- relative viability ([22]; first compound 158.11 µM): 0.467
- relative viability ([22]; first compound 500 µM): 0.359
- relative viability ([23]; first compound 5 µM): 0.881
- relative viability ([23]; first compound 15.81 µM): 0.784
- relative viability ([23]; first compound 50 µM): 0.941
- relative viability ([23]; first compound 158.11 µM): 0.747
- relative viability ([23]; first compound 500 µM): 0.72
